Measurements: patent US8357673B2, “4-arylazo-3,5-diamino-pyrazole compounds and use thereof” (Univerzita Palackeho V Olomouci, priority 2004, dated 2013)
Where two headings read alike, the source gives them in different places. Blank lines part the entries; values can stand above or below the compound they belong to.

Key:
[1] = target: T1, CDK1/cyclin B (Homo sapiens, UniProt P06493); experiment: CDK1/cyclin B kinase inhibition assay (histone H1, [γ-33P]ATP); format: biochemical; details: averaged from triplicates; 15 μM ATP
T1 construct: made in house; host or cells: Sf9 insect cells (baculovirus co-infection)
Procedure: (§1) CDK1/cyclin B and CDK2/cyclin E kinases were produced in Sf9 insect cells coinfected with appropriate baculoviral constructs. The cells were harvested 70 h post infection, incubated in lysis buffer (50 mM Tris pH 7.4, 150 mM NaCl, 5 mM EDTA, 20 mM NaF, 1% Tween 20, 1 mM DTT, 0.1 mM PMSF, 0.5 μg/ml leupeptine, 1 μg/ml aprotonine) for 30 min on ice and the soluble fraction was recovered by centrifugation at 20.000 g for 10 min. The enzymes were purified on NiNTA column (Qiagen), stored at 4° C. and used within a week. To carry out the enzyme inhibition assays under linear conditions, the final point test system for kinase activity measurement was used. Kinase was added to reaction mixture in such a way as to obtain linear activity with respect to the concentration of enzyme and with respect to time. For determination of kinase inhibition the reaction mixture contained 1 mg/ml histone H1 (type III-S, Sigma) in the presence of 15 μM ATP, 0.05 μCi [γ-^33P]ATP and the tested compound in a final volume of 10 μl; all in reaction buffer (50 mM HEPES, 10 mM MgCl2, 5 mM EGTA, 10 mM 2-glycerolphosphate, 1 mM NaF, 1 mM DTT, pH 7.4). After 20 min incubation, the reactions were stopped by the addition of 5 μl of a 3% H3PO4, aliquots were spotted on P-81 phosphocellulose (Whatman, USA) that was subsequently washed 3× with 5% H3PO4 and finally air dried. The measurements of kinase inhibition employed digital image analyzer BAS-1800 (Fujifilm, Japan). Kinase activity was usually expressed as a percentage of maximum activity. […] For the purpose of kinetic analysis, the activity was expressed as arbitrary units (AU) of digital image analyzer signal.

[2] = In vitro cytotoxicity, Calcein AM, 72 h; format: cell-based, human; details: human, at 100 μM
Procedure: (§2) Tested drugs were added to the cell cultures in six different concentration and kept at 37° C. and 5% CO2 for three days.
(§3) The cells, cultured in DMEM (supplemented with 10% fetal calf serum, 4 mM glutamine, 100 IU/ml penicillin, 100 μg/ml streptomycin) in a humidified CO2 incubator at 37° C., were redistributed into 96-well microtitre plates (10.000 cells per well). After 12 h preincubation, tested compounds in six-fold dilutions were added. Treatment of cells with the tested compounds (in the 1-100 μM range) lasted for 72 h.

[3] = system: G 361 (human malignant melanoma); experiment: In vitro cytotoxicity, Calcein AM, 72 h; format: cell-based; details: 72 h; for IC50: Calcein AM, triplicates, read-out: IC50 (μM) G361
Procedure: as §2, §3

[4] = system: HOS (human osteogenic sarcoma); experiment: In vitro cytotoxicity, Calcein AM, 72 h; format: cell-based; details: for IC50: Calcein AM, triplicates, read-out: IC50 (μM) HOS
Procedure: as §2, §3

[5] = system: K562 (human chronic myeloblastic leukemia); experiment: In vitro cytotoxicity, Calcein AM, 72 h; format: cell-based; details: 72 h; for IC50: Calcein AM, triplicates, read-out: IC50 (μM) K562
Procedure: as §2, §3

[6] = system: MCF7 (human breast adenocarcinoma); experiment: In vitro cytotoxicity, Calcein AM, 72 h; format: cell-based; details: 72 h; for IC50: Calcein AM, triplicates, read-out: IC50 (μM) MCF7
Procedure: as §2, §3

[7] = target: T2, CDK2/cyclin E (Homo sapiens, UniProt P24941); experiment: CDK2/cyclin E kinase inhibition assay (histone H1, [γ-33P]ATP); format: biochemical; details: averaged from triplicates; 15 μM ATP
T2 construct: made in house; host or cells: Sf9 insect cells (baculovirus co-infection)
Procedure: as §1

[8] = G 361 cells (human malignant melanoma), 72 h, read-out: % of viable cells G361
[9] = HOS cells (human osteogenic sarcoma), read-out: % of viable cells HOS
[10] = K562 cells (human chronic myeloblastic leukemia), 72 h, read-out: % of viable cells K562
[11] = MCF7 cells (human breast adenocarcinoma), 72 h, read-out: % of viable cells MCF7

T1 sequence (P06493 whole entry): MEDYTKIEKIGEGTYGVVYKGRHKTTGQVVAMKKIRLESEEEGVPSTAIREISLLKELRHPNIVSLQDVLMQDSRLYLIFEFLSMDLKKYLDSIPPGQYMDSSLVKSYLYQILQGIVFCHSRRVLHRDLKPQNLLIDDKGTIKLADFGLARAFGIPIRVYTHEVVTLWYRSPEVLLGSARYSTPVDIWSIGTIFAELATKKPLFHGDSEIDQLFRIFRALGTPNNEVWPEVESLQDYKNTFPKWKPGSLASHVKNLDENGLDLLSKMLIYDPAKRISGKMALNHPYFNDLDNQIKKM
T1 sequence (P14635 whole entry partner): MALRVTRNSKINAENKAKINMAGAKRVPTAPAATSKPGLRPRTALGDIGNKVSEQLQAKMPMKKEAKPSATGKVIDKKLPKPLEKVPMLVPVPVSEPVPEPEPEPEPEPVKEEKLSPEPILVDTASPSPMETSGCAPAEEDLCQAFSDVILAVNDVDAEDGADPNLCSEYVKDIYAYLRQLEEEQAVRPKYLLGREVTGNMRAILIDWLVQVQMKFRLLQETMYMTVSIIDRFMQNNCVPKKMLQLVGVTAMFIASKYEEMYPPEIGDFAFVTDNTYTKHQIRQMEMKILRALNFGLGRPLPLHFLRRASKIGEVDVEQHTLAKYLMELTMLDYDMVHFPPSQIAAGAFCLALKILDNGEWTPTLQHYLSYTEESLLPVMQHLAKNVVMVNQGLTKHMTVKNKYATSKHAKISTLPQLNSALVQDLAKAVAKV

- IC50 [1]: 6 µM
Structure (SMILES): Nc1n[nH]c(N)c1/N=N/c1cccc(O)c1 [Compound 11b, 3,5-diamino-4-(3-hydroxy)phenylazo-pyrazole]
- viability at 72 h, 100 µM [2, 8]: 70%
- viability at 72 h, 100 µM [2, 9]: 83%
- viability at 72 h, 100 µM [2, 10]: 53%
- viability at 72 h, 100 µM [2, 11]: 71%
- IC50 ([3]; Homo sapiens, G-361): > 100 µM
- IC50 ([4]; Homo sapiens): > 100 µM
- IC50 ([5]; Homo sapiens, K562): > 100 µM
- IC50 ([6]; Homo sapiens, MCF7): > 100 µM

- IC50 [1]: 4.8 µM
Structure (SMILES): Nc1n[nH]c(N)c1/N=N/c1cccc([N+](=O)[O-])c1 [Compound 8b, 3,5-diamino-4-(3-nitro)phenylazo-pyrazole]
- viability at 72 h, 100 µM [2, 8]: 69%
- viability at 72 h, 100 µM [2, 9]: 95%
- viability at 72 h, 100 µM [2, 10]: 28%
- viability at 72 h, 100 µM [2, 11]: 44%
- IC50 ([3]; Homo sapiens, G-361): > 100 µM
- IC50 ([4]; Homo sapiens): > 100 µM
- IC50 ([5]; Homo sapiens, K562): 79 ± 6 µM
- IC50 ([6]; Homo sapiens, MCF7): 65 ± 7 µM

- IC50 [1]: > 100 µM
- IC50 [7]: > 100 µM
Structure (SMILES): Cc1c(/N=N/c2c(N)n[nH]c2N)c(=O)n(-c2ccccc2)n1C [Compound 31b]

- IC50 [1]: 3.6 µM
Structure (SMILES): Nc1n[nH]c(N)c1/N=N/c1ccccc1O [Compound 10b, 3,5-diamino-4-(2-hydroxy)phenylazo-pyrazole]
- viability at 72 h, 100 µM [2, 8]: 74%
- viability at 72 h, 100 µM [2, 9]: 84%
- viability at 72 h, 100 µM [2, 10]: 72%
- viability at 72 h, 100 µM [2, 11]: 72%
- IC50 ([3]; Homo sapiens, G-361): > 100 µM
- IC50 ([4]; Homo sapiens): > 100 µM
- IC50 ([5]; Homo sapiens, K562): > 100 µM
- IC50 ([6]; Homo sapiens, MCF7): > 100 µM

- IC50 [1]: 21 µM
- IC50 [7]: 17 µM
Structure (SMILES): Nc1n[nH]c(N)c1N=Nc1ccccc1CO [Compound 16b, 3,5-diamino-4-(2-hydroxymethyl)phenylazo-pyrazole]
- viability at 72 h, 100 µM [2, 8]: 84%
- viability at 72 h, 100 µM [2, 9]: 87%
- viability at 72 h, 100 µM [2, 10]: 86%
- viability at 72 h, 100 µM [2, 11]: 51%
- IC50 ([3]; Homo sapiens, G-361): > 100 µM
- IC50 ([4]; Homo sapiens): > 100 µM
- IC50 ([5]; Homo sapiens, K562): > 100 µM
- IC50 ([6]; Homo sapiens, MCF7): > 100 µM

Continued, compound first:

Structure (SMILES): COc1cnc(NS(=O)(=O)c2ccc(N=Nc3c(N)n[nH]c3N)cc2)nc1 [Compound 22b, 4-[(3,5-diamino-pyrazol-4-yl)-azo]-N-(5-methoxypyrimidin-2-yl)-benzensulfonamide]
- IC50 [1]: > 100 µM
- IC50 [7]: > 100 µM

Structure (SMILES): Nc1n[nH]c(N)c1N=Nc1ccc2ccccc2c1 [Compound 29b, 3,5-diamino-4-(naphth-2-yl)azo-pyrazole]
- IC50 [1]: 16 µM
- IC50 [7]: 15 µM

Structure (SMILES): Nc1n[nH]c(N)c1/N=N/c1cccc(S(=O)(=O)c2cccc(/N=N/c3c(N)n[nH]c3N)c2)c1 [Compound 35d]
- IC50 [1]: > 100 µM
- IC50 [7]: > 100 µM

Structure (SMILES): Nc1n[nH]c(N)c1N=Nc1ccc(S(=O)(=O)Nc2nccs2)cc1 [Compound 20b, 4-[(3,5-diaminopyrazol-4-yl)azo]-N-(thiazol-2-yl)-benzensulfonamide]
- IC50 [1]: > 100 µM
- IC50 [7]: > 100 µM

Structure (SMILES): Cc1cc2nc(Cc3ccccc3N=Nc3c(N)n[nH]c3N)c(=O)[nH]c2cc1C [Compound 27b]
- IC50 [1]: > 100 µM
- IC50 [7]: > 100 µM

Structure (SMILES): Nc1n[nH]c(N)c1/N=N/c1ccc(Br)cc1 [Compound 5b, 3,5-diamino-4-(4-bromo)phenylazo-pyrazole]
- IC50 [1]: > 100 µM

Structure (SMILES): Nc1n[nH]c(N)c1N=Nc1ccccc1Cc1nc2ccccc2[nH]c1=O [Compound 26b]
- IC50 [7]: 95 µM

Structure (SMILES): Nc1n[nH]c(N)c1N=Nc1ccccc1 [Compound 1b, 3,5-diamino-4-(phenyl)azo-pyrazole]
- IC50 [1]: 25 µM
- IC50 [7]: 22 µM
- IC50 [3]: > 100 µM
- % of viable cells G361 ([3]; at 100 μM): (75 ± 2%)
- IC50 [4]: > 100 µM
- % of viable cells HOS ([4]; at 100 μM): (83 ± 8%)
- IC50 [5]: > 100 µM
- % of viable cells K562 ([5]; at 100 μM): (90 ± 14%)
- IC50 [6]: > 100 µM
- % of viable cells MCF7 ([6]; at 100 μM): (74 ± 5%)

Structure (SMILES): Nc1n[nH]c(N)c1/N=N/c1ccc(I)cc1 [Compound 6b, 3,5-diamino-4-(4-iodo)phenylazo-pyrazole]
- IC50 [1]: > 100 µM
